Columns and labels:
[1] = Solubility of dabigatran (descriptive); format: physicochemical
[2] = Hygroscopicity of dabigatran (descriptive); format: physicochemical; conditions: leads to formation of different hydrated forms

[H]/N=C(/N)c1ccc(NCc2nc3cc(C(=O)N(CCC(=O)O)c4ccccn4)ccc3n2C)cc1 [dabigatran]
Solubility [1]: sparingly soluble | Hygroscopicity [2]: hygroscopic

Source: patent US9063163B2, “Lyophilised dabigatran” (Boehringer Ingelheim International GmbH, priority 2009, dated 2015)
